{"source": "patent US12331051B2", "about": "(priority 2021, dated 2025)", "key": {"[1]": {"biological_target": "T1, Serotonin 1B receptor (5-HT1BR) (Homo sapiens, UniProt P28222)", "T1 construct": "expressed in transfected cells; host or cells: HEK-293", "T1 sequence (P28222 whole entry)": "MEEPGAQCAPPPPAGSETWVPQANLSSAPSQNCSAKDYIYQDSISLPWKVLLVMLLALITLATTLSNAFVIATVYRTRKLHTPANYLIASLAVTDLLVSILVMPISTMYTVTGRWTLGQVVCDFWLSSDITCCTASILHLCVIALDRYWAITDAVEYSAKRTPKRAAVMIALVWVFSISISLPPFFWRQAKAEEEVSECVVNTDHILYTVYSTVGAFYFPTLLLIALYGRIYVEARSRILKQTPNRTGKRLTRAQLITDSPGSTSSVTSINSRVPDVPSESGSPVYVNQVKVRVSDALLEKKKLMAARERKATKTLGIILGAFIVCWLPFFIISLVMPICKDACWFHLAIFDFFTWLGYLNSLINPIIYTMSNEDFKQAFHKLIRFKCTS", "assay": "Functional assay in HEK-293 cells (cAMP)", "format": "cell-based", "conditions": "Functional Assay (agonist) EC50 (nM), cAMP; ligand 5-HT", "procedure": "(§1) Neuro-receptor binding and functional effects of the “E559 polymorph” was examined by analyzing binding affinity [Ki (nM)], functional agonist activity [EC50 (nM)], and functional antagonist activity [IC50 (nM)] against a panel of key receptors in neurophysiological disorders. Binding and functional assays were performed at “E559 polymorph” concentrations of 0.0003, 0.003, 0.01, 0.03, 0.1, 0.3, 1, and 10 μM. In binding assays, cell membrane homogenates, expressing each receptor target, were incubated with the corresponding radio-ligand in absence or presence of several concentration of the “E559 polymorph” compound. The measurement of binding affinity of the “E559 polymorph” is represented in TABLE XIII by Ki (nM) which was calculated as percent inhibition of the binding of a radioactively labeled reference ligand at each receptor. In functional assays the HEK-293 cells expressing each receptor target were suspended in buffer and distribute in microplates and incubated for 30 minutes at room temperature or 37° C. in the presence of buffer alone (basal control), the reference agonist or antagonist, or the “E559 polymorph. Following incubation, the cells were lysed and the appropriate fluorescent probe (Ca2+ flux, cAMP, or IP1) were added for 60 minutes to measure the fluorescence transfer at the appropriate wavelength using a microplate reader. The cellular agonist effect (EC50) was calculated as a percent of control response to a known reference agonist and the cellular antagonist effect (IC50) was calculated as a percent inhibition of control reference agonist response for each receptor.\n(§2) The functional agonist activity [EC50 (nM), Emax], and functional antagonist activity [IC50 (nM)] of the 5R:8S stereoisomer of the “E559 polymorph” (5R:8S E558) was compared with the “E559 polymorph” (a 5R:8R stereoisomer) at selected serotonin receptors. The assays were performed as described in Example 6."}, "[2]": {"biological_target": "T2, 5-HT2A receptor (5-HT2AR) (Homo sapiens, UniProt P28223)", "T2 construct": "expressed in transfected cells; host or cells: HEK-293", "T2 sequence (P28223 whole entry)": "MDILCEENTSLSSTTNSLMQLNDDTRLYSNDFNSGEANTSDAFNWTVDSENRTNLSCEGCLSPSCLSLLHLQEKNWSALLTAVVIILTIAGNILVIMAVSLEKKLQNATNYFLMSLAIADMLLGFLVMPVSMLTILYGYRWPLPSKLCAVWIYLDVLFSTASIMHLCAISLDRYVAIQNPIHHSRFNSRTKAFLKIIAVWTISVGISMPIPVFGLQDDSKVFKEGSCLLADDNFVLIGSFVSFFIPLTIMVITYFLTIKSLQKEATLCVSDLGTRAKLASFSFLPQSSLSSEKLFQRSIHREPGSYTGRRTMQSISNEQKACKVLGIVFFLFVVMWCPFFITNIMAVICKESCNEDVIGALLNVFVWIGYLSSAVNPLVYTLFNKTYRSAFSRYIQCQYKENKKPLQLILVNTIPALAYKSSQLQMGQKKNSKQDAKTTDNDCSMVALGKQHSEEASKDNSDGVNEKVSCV", "assay": "Functional assay in HEK-293 cells (IP1)", "format": "cell-based", "procedure": "as §1, §2"}, "[3]": {"biological_target": "T3, Serotonin 2B receptor (5-HT2BR) (Homo sapiens, UniProt P41595)", "T3 construct": "expressed in transfected cells; host or cells: HEK-293", "T3 sequence (P41595 whole entry)": "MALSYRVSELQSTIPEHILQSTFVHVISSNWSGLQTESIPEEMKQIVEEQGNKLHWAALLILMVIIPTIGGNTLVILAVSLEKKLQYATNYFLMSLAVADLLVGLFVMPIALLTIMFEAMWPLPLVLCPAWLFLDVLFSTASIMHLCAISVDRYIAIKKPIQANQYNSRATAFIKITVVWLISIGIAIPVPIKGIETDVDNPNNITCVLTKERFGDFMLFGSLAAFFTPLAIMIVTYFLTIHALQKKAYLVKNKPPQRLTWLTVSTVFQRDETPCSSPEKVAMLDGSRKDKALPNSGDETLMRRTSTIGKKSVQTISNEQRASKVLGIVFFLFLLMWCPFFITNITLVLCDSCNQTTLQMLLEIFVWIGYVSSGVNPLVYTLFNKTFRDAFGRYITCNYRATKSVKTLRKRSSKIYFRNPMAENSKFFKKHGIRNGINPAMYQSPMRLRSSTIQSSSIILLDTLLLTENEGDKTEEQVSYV", "assay": "Functional assay in HEK-293 cells (IP1)", "format": "cell-based", "procedure": "as §1, §2"}, "5-HT1E": {"biological_target": "T4, 5-HT1E (Homo sapiens, UniProt P28566)", "T4 construct": "expressed in transfected cells; host or cells: HEK-293", "T4 sequence (P28566 whole entry)": "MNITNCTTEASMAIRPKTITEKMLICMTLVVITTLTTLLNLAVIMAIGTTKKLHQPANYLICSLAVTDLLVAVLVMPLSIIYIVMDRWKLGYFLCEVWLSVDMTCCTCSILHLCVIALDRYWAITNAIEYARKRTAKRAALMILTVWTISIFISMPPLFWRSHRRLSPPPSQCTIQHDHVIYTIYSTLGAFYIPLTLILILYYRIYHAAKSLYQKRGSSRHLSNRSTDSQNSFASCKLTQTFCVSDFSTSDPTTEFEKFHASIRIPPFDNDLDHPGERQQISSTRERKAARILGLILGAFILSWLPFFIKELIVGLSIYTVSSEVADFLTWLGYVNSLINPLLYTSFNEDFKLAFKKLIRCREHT", "assay": "Functional assay (Arrestin)", "format": "cell-based"}, "5-HT1F": {"biological_target": "T5, 5-HT1F (Homo sapiens, UniProt P30939)", "T5 construct": "expressed in transfected cells; host or cells: HEK-293", "T5 sequence (P30939 1-366)": "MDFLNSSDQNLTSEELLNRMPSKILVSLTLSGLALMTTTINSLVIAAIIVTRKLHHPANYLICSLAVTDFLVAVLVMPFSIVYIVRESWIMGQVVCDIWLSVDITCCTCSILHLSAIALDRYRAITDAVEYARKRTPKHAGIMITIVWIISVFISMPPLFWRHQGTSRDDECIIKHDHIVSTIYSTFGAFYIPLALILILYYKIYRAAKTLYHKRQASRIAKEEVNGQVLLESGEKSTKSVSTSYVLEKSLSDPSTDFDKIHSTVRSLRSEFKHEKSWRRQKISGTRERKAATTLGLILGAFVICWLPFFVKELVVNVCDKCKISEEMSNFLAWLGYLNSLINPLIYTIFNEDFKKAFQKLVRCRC", "assay": "Functional assay (cAMP)", "format": "cell-based", "procedure": "as §1, §2"}, "5-HT6": {"biological_target": "5-HT6 (Homo sapiens, UniProt P50406)", "sequence (P50406 whole entry)": "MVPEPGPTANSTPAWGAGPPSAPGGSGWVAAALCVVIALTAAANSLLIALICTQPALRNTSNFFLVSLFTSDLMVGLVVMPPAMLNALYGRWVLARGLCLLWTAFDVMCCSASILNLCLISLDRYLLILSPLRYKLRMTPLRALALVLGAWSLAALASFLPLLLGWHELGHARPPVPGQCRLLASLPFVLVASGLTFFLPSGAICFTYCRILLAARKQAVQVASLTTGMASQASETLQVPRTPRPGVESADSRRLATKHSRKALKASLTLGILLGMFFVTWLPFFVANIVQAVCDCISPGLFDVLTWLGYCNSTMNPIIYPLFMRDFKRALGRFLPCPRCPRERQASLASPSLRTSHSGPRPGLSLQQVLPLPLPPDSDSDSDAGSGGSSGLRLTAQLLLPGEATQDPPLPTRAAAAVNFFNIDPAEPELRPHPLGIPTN", "assay": "Functional assay (cAMP)", "format": "cell-based", "design": "expressed in transfected cells; host or cells: HEK-293", "procedure": "as §1, §2"}, "DVS hygroscopicity": {"assay": "DVS hygroscopicity", "format": "physicochemical", "conditions": "for DVS (hold at 75% RH) mass increase: crude material, 75% relative humidity, ~5 hr run time"}, "mice": {"test_system": "mice", "assay": "Tolerance after repeated dosing, HTR to DOI challenge", "format": "in vivo, mouse", "conditions": "IP once daily 7 days: DOI 10 mg/kg/day, E559 polymorph 3 mg/kg/day; DOI 1 mg/kg challenge 24 hours later", "procedure": "To determine if repeated dosing of the “E559 polymorph” can induce tolerance in vivo, HTR experiment described in Examples 2 and 5 was repeated where mice received IP injections of vehicle, DOI (10 mg/kg/day), or the “E559 polymorph” (3 mg/kg/day; once daily for 7 consecutive days) and were then challenged with DOI (1 mg/kg) 24 hours later. Data shown in FIG. 22 are group means±standard deviation for the entire 60 minutes test session. Asterisks indicate statistical significances compared to the Vehicle control (Vehicle was saline)."}, "5-HT2A receptor [4]": {"biological_target": "T6, 5-HT2A receptor (Homo sapiens, UniProt P28223)", "T6 sequence (P28223 whole entry)": "as the sequence (P28223 whole entry) above"}, "5-HT2A receptor [5]": {"biological_target": "T6, 5-HT2A receptor", "assay": "5-HT2A receptor internalization, NanoBit HiBit-fused 5-HT2A in HEK293T cells", "format": "cell-based", "design": "expressed in transfected cells; host or cells: HEK293T", "procedure": "To assess the ability of the “E559 polymorph” to induce β-arrestin-mediated 5-HT2A receptor internalization in vitro, the loss of surface expression of 5-HT2A receptor was measured using a NanoBit N-terminal HiBit-fused 5-HT2A construct cloned in HEK293T cells (1:15 ratio 5-HT2A: β-arrestin2). In brief, cells were treated with serial dilution of test compounds for 1 hour or a specified time point."}, "[6]": {"test_system": "primary cortical neurons (rats)", "assay": "In vitro dendritogenesis assay with volinanserin pre-treatment", "format": "cell-based, rat", "procedure": "The 5-HT2A receptor plays a key role in the function of serotonergic psychedelics and their derivatives (Jaster, et al., Psychopharmacology, 2022, 239, p1665-1677.). […] The in vitro dendritogenesis assay was repeated in the presence or absence of a selective 5-HT2A antagonist volinanserin. In brief, FIG. 20A represents tracings of the cortical neurons (DIV 3) treated with volinanserin (Vol) at […]) followed by either vehicle or “E559 polymorph” (1 μM). Sholl radii are spaced 10 μm. […] FIG. 20C represents the total dendritic arbour length for neurons treated in FIG. 20A. In FIGS. 20B and 20C, violin plots represent the distribution of individual cells (n=15/treatment), while dots represent the averages per independent experiment (n=5/treatment). In this study primary cortical neurons (rats) were treated with volinanserin (0.1-1 μM), a selected 5-HT2A receptor antagonist, prior to the administration of the “polymorph HT compound” (1 μM 2-Br-LSD)."}, "stress-naïve mice": {"test_system": "stress-naïve mice", "assay": "FST and OFT with volinanserin pre-treatment", "format": "in vivo, mouse", "procedure": "The 5-HT2A receptor plays a key role in the function of many serotonergic psychedelics and their derivatives (Jaster et al., Psychopharmacology, 2022, 239, p1665-1677.). […] To further investigate the role of the 5-HT2A receptor in the “E559 polymorph” effects in these in vivo models, the open field test and forced swim test in mice was repeated as described in Example 14, with and without volinanserin, a selective 5-HT2A antagonist, treatment. Briefly, volnanserin (0.125 mg/kg) was administered (IP injection) 1 hour prior to the administration of the “E559 polymorph” (1 mg/kg, IP) to stress-naïve mice, and forced swim test was performed 24 hours later as described in Example 14. In brief, FIG. 26A represents immobility time in the forced swim test of female mice (n=12/group) pre-treated with vehicle or volinanserin, followed by either vehicle (saline) or “E559 polymorph” (1 mg/kg). […] FIG. 26C represents distance travelled in the open field Measured 24 hours after treatment (as in FIG. 26A) in female mice (n=12). […] Horizontal lines in FIG. 26 represent the mean±standard error of the mean (S.E.M.) and asterisks indicate statistical significances."}, "[7]": {"conditions": "cAMP, ligand 5-HT, read-out: Functional Assay (agonist) Emax"}}, "data": [{"smiles": "CCN(CC)C(=O)[C@H]1C=C2c3cccc4[nH]c(Br)c(c34)C[C@H]2N(C)C1", "note": "[E558, (5R, 8S)-2-Bromo-9,10-didehydro-N,N-diethyl-6-methylergoline-8-carboxamide]", "values": [{"measurement": "EC50", "setting": "[1]", "result": "> 10000", "unit": "nM"}, {"measurement": "EC50", "setting": "[2]", "result": 0.2, "unit": "µM"}, {"measurement": "IC50", "setting": "[2]", "result": "> 10", "unit": "µM"}, {"measurement": "Emax", "setting": "[2]; HEK293, IP1, ligand 5-HT, read-out: Functional Assay (agonist) Emax", "result": 55, "unit": "%"}, {"measurement": "EC50", "setting": "[3]", "result": "> 10", "unit": "µM"}, {"measurement": "IC50", "setting": "[3]", "result": "> 10", "unit": "µM"}, {"measurement": "EC50", "setting": "5-HT1E", "result": "> 10", "unit": "µM"}, {"measurement": "EC50", "setting": "5-HT1F", "result": 3.12, "unit": "µM"}, {"measurement": "Emax", "setting": "5-HT1F; [7]", "result": 66.9, "unit": "%"}, {"measurement": "EC50", "setting": "5-HT6", "result": 0.099, "unit": "µM"}, {"measurement": "Emax", "setting": "5-HT6; [7]", "result": 71, "unit": "%"}]}, {"smiles": "CCN(CC)C(=O)[C@@H]1C=C2c3cccc4[nH]c(Br)c(c34)C[C@H]2N(C)C1", "note": "[E560, (5R, 8R)-2-Bromo-9,10-didehydro-N,N-diethyl-6-methylergoline-8-carboxamide hemi-L-tartrate]", "values": [{"measurement": "DVS (0-90-0 2 cycles) max water absorbed", "setting": "DVS hygroscopicity; 90% RH exposure, ~24 hr run time, listed as L-Tartrate", "result": "absorbed mad 12%"}, {"measurement": "DVS (hold at 75% RH) mass increase", "setting": "DVS hygroscopicity; listed as L-Tartrate", "result": 6.3, "unit": "% mass increase"}, {"measurement": "DVS (hold at 75% RH) mass increase", "setting": "DVS hygroscopicity; listed as L-tartrate salt", "result": "about 6.3%"}]}, {"smiles": "COc1cc(CC(C)N)c(OC)cc1I", "note": "(stereo not drawn) [DOI, 2,5-Dimethoxy-4-iodoamphetamine]", "values": [{"measurement": "tolerance (tachyphylaxis) after repeated dosing, HTR count on DOI challenge", "setting": "mice", "result": "induced a significant degree of tachyphylaxis/tolerance"}, {"measurement": "β-Arrestin2 recruitment at the 5-HT2A receptor", "setting": "5-HT2A receptor [4]", "result": "strong recruiters of β-Arrestin2"}, {"measurement": "internalization of the 5-HT2A receptor (loss of surface expression)", "setting": "5-HT2A receptor [5]", "result": "potent internalization"}]}, {"smiles": "COc1cccc([C@H](O)C2CCN(CCc3ccc(F)cc3)CC2)c1OC", "note": "[volinanserin]", "values": [{"measurement": "effect of volinanserin on E559 polymorph induced increase in total dendrite length", "setting": "[6]; E559 polymorph 1 μM", "result": "blocked the increase in total dendrite length"}, {"measurement": "effect of volinanserin pre-treatment on E559 polymorph (1 μM) induced dendritic arbor complexity (Sholl intersections)", "setting": "[6]; every volinanserin concentration tested", "result": "blocked the effect"}, {"measurement": "dendritic arbor complexity, volinanserin alone", "setting": "[6]; volinanserin followed by vehicle", "result": "did not change any parameters linked to dendritic arbor complexity"}, {"measurement": "effect of volinanserin pre-treatment on E559 polymorph induced decrease in immobility in FST", "setting": "stress-naïve mice; volinanserin 0.125 mg/kg IP 1 hour before E559 polymorph 1 mg/kg IP, female and male mice", "result": "blocked the decrease in immobility"}, {"measurement": "locomotion in the OFT", "setting": "stress-naïve mice; volinanserin alone or with E559 polymorph, female or male mice", "result": "did not affect locomotion in the OFT in female or male mice"}]}, {"smiles": "NCCc1c[nH]c2ccc(O)cc12", "note": "[5-HT, serotonin]", "values": [{"measurement": "β-Arrestin2 recruitment at the 5-HT2A receptor", "setting": "5-HT2A receptor [4]", "result": "strong recruiters of β-Arrestin2"}, {"measurement": "internalization of the 5-HT2A receptor (loss of surface expression)", "setting": "5-HT2A receptor [5]", "result": "potent internalization"}]}]}
